The text below walks through data of publication PMC7822874, “Chemoprotective antimalarials identified through quantitative high-throughput screening of Plasmodium blood and liver stage parasites” (Scientific Reports, 2021).

Like-named read-outs stand apart in the source and are kept apart here.

For assay [1], the system named is P. berghei-ANKA-GFP-LucCON liver stage parasites in HepG2-A16-CD81EGFP cells. As to the kind of experiment: P. berghei liver stage Pb-Luc assay, Method 1 (UCSD, 1536-well). The note with it: P. berghei liver stage, averaged response (percent); for Average P. berghei 1 µM response (%): the header list (r8) defines it as the 1 µM dose. The format is cell-based, Plasmodium berghei.

Assay [2] has as its system P. falciparum Dd2 (clone B2) asexual blood stage parasites. Kind of assay: P. falciparum Dd2 asexual blood stage SYBR Green-I 72 h proliferation assay (qHTS). It is filed as cell-based, Plasmodium falciparum. The note with it: averaged P. falciparum asexual blood stage potency, log10 of AC50 in M.
The subject of another assay is HepG2-A16-CD81EGFP cells. The note with it: averaged response (percent).
The mark [3] stands for this setting: HepG2, the header list (r10) describes it as the 1 µM dose.

For `Cc1cc(Cl)c(S(=O)(=O)N2CCN(c3ccccn3)CC2)cc1OCC(=O)NC1CCCCC1` [MLS000693481], in assay [1], the “Average P. berghei 3 µM response( %)” value is on record as 74% and the “Average P. berghei 1 µM response (%)” value is 99%. For the same compound, in assay [2], the “Pf ABS Log AC50 (M)” value is listed as -6.387 M. Moreover, in the assay with HepG2-A16-CD81EGFP cells (HepG2, 3 µM dose), the “Average HepG2 3 µM response( %)” value stood at 100%. For the same compound, the “Average HepG2 3 µM response( %)” value in the assay on HepG2-A16-CD81EGFP cells (setting [3]) came to 93%.

As for `Cc1ccc(/C=N/NC(=O)c2cc3ccccc3cc2O)o1` [MLS001219838], in assay [1], the “Average P. berghei 3 µM response( %)” value was determined as 6.47% and the “Average P. berghei 1 µM response (%)” value came out at 18%. Further, in assay [2], the “Pf ABS Log AC50 (M)” value is listed as -5.275 M. The “Average HepG2 3 µM response( %)” value with HepG2-A16-CD81EGFP cells (HepG2, 3 µM dose) is 98%. In addition, the “Average HepG2 3 µM response( %)” value with HepG2-A16-CD81EGFP cells (setting [3]) worked out at 98%.

In the case of `CCOc1ccccc1CN1CCC2(CCN(CCC(C)C)CC2)Oc2ccccc21` [NCGC00478188], in assay [1], the “Average P. berghei 3 µM response( %)” value is listed as 48% and the “Average P. berghei 1 µM response (%)” value came out at 106%. The “Pf ABS Log AC50 (M)” value in assay [2] is on record as -5.475 M. For the same compound, the “Average HepG2 3 µM response( %)” value in the assay with HepG2-A16-CD81EGFP cells (HepG2, 3 µM dose) was 105%. In addition, the “Average HepG2 3 µM response( %)” value in the assay on HepG2-A16-CD81EGFP cells (setting [3]) was determined as 100%.

Regarding `O=C(Nc1ccc(Cl)cc1)Nc1ccc2c(c1)N1CCN=C1S2` [MLS000078440], the “Average P. berghei 3 µM response( %)” value in assay [1] was determined as 69%. For the same compound, the “Pf ABS Log AC50 (M)” value in assay [2] is given as -5.612 M. Besides, the “Average HepG2 3 µM response( %)” value in the assay on HepG2-A16-CD81EGFP cells (HepG2, 3 µM dose) worked out at 94%; in the assay on HepG2-A16-CD81EGFP cells (setting [3]) it was 98%.

Regarding `c1ccc2c(NCCc3c[nH]c4ccccc34)c3ccccc3nc2c1` [MLS001195935], the “Average P. berghei 3 µM response( %)” value in assay [1] is 47%. In addition, in assay [2], the “Pf ABS Log AC50 (M)” value is reported as -5.937 M. The “Average HepG2 3 µM response( %)” value in the assay on HepG2-A16-CD81EGFP cells (HepG2, 3 µM dose) worked out at 82%; in the assay on HepG2-A16-CD81EGFP cells (setting [3]), 91%.

As for `O=C(Nc1c(C(=O)c2ccccc2)oc2ccccc12)c1cc(-c2ccccc2O)n[nH]1` [MLS000331861], in assay [1], the “Average P. berghei 3 µM response( %)” value is 116%. Further, the “Average P. berghei 1 µM response (%)” value in assay [1] worked out at 84%. In addition, the “Pf ABS Log AC50 (M)” value in assay [2] was -5.837 M. For the same compound, the “Average HepG2 3 µM response( %)” value in the assay on HepG2-A16-CD81EGFP cells (HepG2, 3 µM dose) is listed as 101%; with HepG2-A16-CD81EGFP cells (setting [3]), 103%.

Regarding `CCOC(=O)C1=C(C)N=c2s/c(=C/c3ccc(OCC(=O)O)cc3)c(=O)n2C1c1cc(OC)c(OC)c(OC)c1` (stereo not drawn) [MLS001178475], in assay [1], the “Average P. berghei 3 µM response( %)” value is listed as 74% and the “Average P. berghei 1 µM response (%)” value was 98%. Further, the “Pf ABS Log AC50 (M)” value in assay [2] was -5.737 M. The “Average HepG2 3 µM response( %)” value with HepG2-A16-CD81EGFP cells (HepG2, 3 µM dose) is reported as 99%. Further, in the assay on HepG2-A16-CD81EGFP cells (setting [3]), the “Average HepG2 3 µM response( %)” value was found to be 99%.

Regarding `COc1ccc2[nH]c(C[C@@H]3C[C@@H](C(C)C)[C@H](CNCc4ccccc4OC)C=C3C)nc2c1` [NCGC00392082], in assay [1], the “Average P. berghei 3 µM response( %)” value worked out at 47% and the “Average P. berghei 1 µM response (%)” value worked out at 75%. Further, the “Pf ABS Log AC50 (M)” value in assay [2] is reported as -5.025 M. In addition, the “Average HepG2 3 µM response( %)” value in the assay with HepG2-A16-CD81EGFP cells (HepG2, 3 µM dose) was found to be 97%. In addition, in the assay with HepG2-A16-CD81EGFP cells (setting [3]), the “Average HepG2 3 µM response( %)” value is recorded as 99%.

As to `Oc1cc2c(cc1CN1CCN(c3ccccc3)CC1)CCC2` [MLS000058156], the “Average P. berghei 3 µM response( %)” value in assay [1] was 107%. Further, the “Average P. berghei 1 µM response (%)” value in assay [1] worked out at 92%. In assay [2], the “Pf ABS Log AC50 (M)” value was -5.587 M. Besides, the “Average HepG2 3 µM response( %)” value in the assay on HepG2-A16-CD81EGFP cells (HepG2, 3 µM dose) turned out to be 101%; with HepG2-A16-CD81EGFP cells (setting [3]), 102%.

Consider `O=S1(=O)N(CCN2CC=C(c3c[nH]c4cc(F)ccc34)CC2)c2cccc3c2N1CCC3` [MLS002172448], for which, in assay [1], the “Average P. berghei 3 µM response( %)” value amounted to 60% and the “Average P. berghei 1 µM response (%)” value amounted to 78%. Also, the “Pf ABS Log AC50 (M)” value in assay [2] is given as -6.050 M. Besides, the “Average HepG2 3 µM response( %)” value in the assay on HepG2-A16-CD81EGFP cells (HepG2, 3 µM dose) was 80%. Moreover, the “Average HepG2 3 µM response( %)” value with HepG2-A16-CD81EGFP cells (setting [3]) turned out to be 88%.

Turning to `CN(CC(=O)Nc1cccc(F)c1)C(=O)c1ccc(-c2cccc(C(F)(F)F)c2)o1` [MLS001139679], in assay [1], the “Average P. berghei 3 µM response( %)” value is recorded as 89% and the “Average P. berghei 1 µM response (%)” value worked out at 141%. Besides, in assay [2], the “Pf ABS Log AC50 (M)” value is on record as -6.362 M. Moreover, the “Average HepG2 3 µM response( %)” value with HepG2-A16-CD81EGFP cells (HepG2, 3 µM dose) is listed as 100%. Moreover, in the assay on HepG2-A16-CD81EGFP cells (setting [3]), the “Average HepG2 3 µM response( %)” value came out at 103%.

As for `CCCCn1c2c(c(=N)c3c1CCC3)CCC2` [MLS000080126], in assay [1], the “Average P. berghei 3 µM response( %)” value came out at 4% and the “Average P. berghei 1 µM response (%)” value is on record as 41%. Moreover, the “Pf ABS Log AC50 (M)” value in assay [2] is given as -5.587 M. For the same compound, the “Average HepG2 3 µM response( %)” value with HepG2-A16-CD81EGFP cells (HepG2, 3 µM dose) is reported as 80%. Moreover, the “Average HepG2 3 µM response( %)” value in the assay with HepG2-A16-CD81EGFP cells (setting [3]) was 110%.

Take `CCCN(CCC)CCNC(=O)c1cc2c(-c3ccc(Cl)cc3)nn(C)c2s1` [NCGC00108997]: in assay [1], the “Average P. berghei 3 µM response( %)” value stood at 49% and the “Average P. berghei 1 µM response (%)” value was 57%. The “Pf ABS Log AC50 (M)” value in assay [2] was -6.212 M. Also, the “Average HepG2 3 µM response( %)” value in the assay with HepG2-A16-CD81EGFP cells (HepG2, 3 µM dose) is recorded as 98%. For the same compound, the “Average HepG2 3 µM response( %)” value in the assay with HepG2-A16-CD81EGFP cells (setting [3]) came out at 102%.
